Test results as given in US8865934B2 (priority 2010, dated 2014).
In brackets after ≈: the same amount, converted by molar mass.

Assays:
[1] = DPPH free radical scavenging (antioxidant activity, electron donating ability); conditions: 0.1 mM DPPH in methanol, 30 minutes at room temperature in the absence of light, absorbance at 517 nm
Procedure: Butylated hydroxyl anisole (BHA) was used as a control.
The mixture was allowed to react at room temperature for 30 minutes in the absence of light, and then the absorbance at 517 nm was measured using an UV-visible spectrophotometer (SCINCO, Korea). As blank, a reaction product between 0.5 ml of 0.1 mM DPPH and 1.5 ml of methanol was used. Electron donating ability (DEA) was calculated using the following equation: Electron donating ability (DEA) %={1−(S/B)}×100 wherein S is the absorbance at 517 nm of the reaction product between DPPH and the sample, and B is the absorbance at 517 nm of the reaction product between DPPH and methanol.

[2] = Stability of ramalin in water by HPLC, alone or with vitamin C; type: physicochemical; conditions: for stability (preserved amount by HPLC area) over maintenance time: FIG. 5
Procedure: At varying points of time, 10 μl of a sample was analyzed by semi-preparative reverse phase HPLC using an Agilent Eclipse XDB-C18 column (4.6×150 mm). The solvent system used consisted of 0.1% formic acid-containing water (A line) and 0.1% formic acid-containing methanol (B line). The analysis was carried out for a total of 30 minutes under the following conditions: from 0% to 5% for 15 min, from 5% to 90% for 5 min, from 90% to 0% for 5 min, and finally, from 0% to 5 min. The flow rate was 0.7 ml/min.

Structure (SMILES)	IC50 values [1] [µg/mL]	stability (preserved amount by HPLC area) over maintenance time ([2]; ramalin alone, stored in water at 25° C. and 38° C.)	stability (preserved amount by HPLC area) over maintenance time ([2]; ramalin mixed with vitamin C (L-ascorbic acid) 1:1 (each 1000 ppm), stored in water)	stability at 38° C. ([2]; ramalin stored alone in water)	stability at 38° C. ([2]; ramalin stored together with vitamin C (1:1, each 1000 ppm) in water)	time within which more than half of ramalin disappears ([2]; room temperature, ramalin alone) [days]
COc1ccc(O)c(C(C)(C)C)c1 [Butylated hydroxyl anisole (BHA), Butylated hydroxyl anisole]	1.43 (≈ 7.93 µM)					
NC(CCC(=O)NNc1ccccc1O)C(=O)O (stereo not drawn) [Synthesized ramalin, ramalin]		decomposed rapidly	stability of the ramalin was maintained	completely disappear	somewhat stable	≤ 4
